# Test system: first line metastatic castrate-resistant prostate cancer (mCRPC)
# Assay: Phase 3 randomized double blind placebo-controlled study of masitinib in combination with docetaxel (+ prednisone), progression-free survival
# Type: in vivo, human
# Conditions: for Median progression-free survival (PFS): masitinib 6 mg/kg/day + docetaxel + prednisone; for Hazard Ratio / Risk Benefit: masitinib vs placebo, each + docetaxel + prednisone
# Method: A prospective, multicenter, randomized, double blind, placebo-controlled, 2-parallel groups, phase 3 study was conducted to assess the efficacy and safety of masitinib in combination with docetaxel as compared to placebo in combination with docetaxel in first line metastatic castrate-resistant prostate cancer (mCRPC).
# The objective of the study was to assess the efficacy and safety of masitinib in combination with docetaxel as compared to docetaxel in combination with placebo in first line metastatic castrate-resistant prostate cancer (mCRPC). Efficacy was assessed based on the progression-free survival (PFS), measured in months.
# The patients recruited in the study consist of adult males suffering from prostate cancer who progressed to develop castration-resistant prostate cancer (CRPC) after castration treatment (reduction of androgens (e.g., testosterone, dihydrotestosterone (DHT)) by chemical or surgical means). These patients are considered to be patients in the first line metastatic castration-resistant prostate cancer (mCRPC).
# The patients recruited in the study were randomized in two groups with a ratio 1:1: • Group 1: masitinib (6 mg/kg/day)+docetaxel (75 mg/m^2 6 cycles—8 or 10 cycles possible)+prednisone according to usual practice; • Group 2: placebo+docetaxel (75 mg/m^2 6 cycles—8 or 10 cycles possible)+prednisone according to usual practice.
# Docetaxel was combined with prednisone as usual practice.
# Patients were centrally randomized to one of the two treatment groups by IWRS (Interactive Web Response System) according to minimization method.
# Inclusion criteria were: • Patient aged≥18 years old, with histologically or cytologically confirmed metastatic castrate-resistant prostate cancer (medical or surgical castration: androgens deprivation by GnRH agonist or antagonist or patient with surgical castration; hormonal castration confirmed biologically (testosterone<0.5 ng/ml) with one of the following criteria: • If surgical castration is done than there is no requirement to perform testosterone test. • Pre-treated with abiraterone with progressed disease documented, OR • With indication for initiating docetaxel administration (e.g., widespread visceral disease or rapidly progressive disease). • Patient with evidence of progressive metastatic disease. Disease progression at trial enrolment is based on progression in at least one variable as described in the Prostate Cancer Clinical Trials Working Group (PCWG2) definition of response and progression for disease manifestations in prostate cancer (Scher et al. J Clin Oncol. 2008; 26:1148-1159):
# • Patient with ECOG≤1 • Patient with adequate organ function: […]
# [1] = Halabi prognosis score H > 15 at baseline
# [2] = Halabi prognosis score H > 16 at baseline
# [3] = Halabi prognosis score H > 17 at baseline
# [4] = Halabi prognosis score H > 18 at baseline
# [5] = Halabi prognosis score H > 19 at baseline
# [6] = Halabi prognosis score H > 20 at baseline
# [7] = Halabi prognosis score H > 21 at baseline
# [8] = Halabi prognosis score H > 22 at baseline
# [9] = Halabi prognosis score H > 27 at baseline
# [10] = Halabi prognosis score H > 33 at baseline
# [11] = Halabi prognosis score H ≤ 15 at baseline
# [12] = Halabi prognosis score H ≤ 16 at baseline
# [13] = Halabi prognosis score H ≤ 17 at baseline
# [14] = Halabi prognosis score H ≤ 18 at baseline
# [15] = Halabi prognosis score H ≤ 19 at baseline
# [16] = Halabi prognosis score H ≤ 20 at baseline
# [17] = Halabi prognosis score H ≤ 21 at baseline
# [18] = Halabi prognosis score H ≤ 22 at baseline
# [19] = Halabi prognosis score H ≤ 27 at baseline
# [20] = Halabi prognosis score H ≤ 33 at baseline
# [21] = baseline ALP > 250 IU/L and H > 18
# [22] = baseline ALP > 250 IU/L and H > 19
# [23] = baseline ALP > 250 IU/L and H > 20
# [24] = baseline ALP > 250 IU/L and H > 21
# [25] = baseline ALP > 250 IU/L and H > 22
# [26] = baseline ALP > 250 IU/L and H ≤ 20
# [27] = baseline ALP > 250 IU/L and H ≤ 21
# [28] = baseline ALP > 250 IU/L and H ≤ 22
# [29] = baseline ALP equal to or lower than 100 IU/L and H equal to or lower than 18
# [30] = baseline ALP equal to or lower than 150 IU/L and H equal to or lower than 18
# [31] = baseline ALP equal to or lower than 200 IU/L and H equal to or lower than 18
# [32] = baseline ALP ≤ 250 IU/L and H < 21
# [33] = baseline ALP ≤ 250 IU/L and H < 22
# [34] = baseline ALP ≤ 250 IU/L and H > 18
# [35] = baseline ALP ≤ 250 IU/L and H > 19
# [36] = baseline ALP ≤ 250 IU/L and H > 20
# [37] = baseline ALP ≤ 250 IU/L and H > 21
# [38] = baseline ALP ≤ 250 IU/L and H > 22
# [39] = baseline ALP ≤ 250 IU/L and H ≤ 18
# [40] = baseline ALP ≤ 250 IU/L and H ≤ 19
# [41] = baseline ALP ≤ 250 IU/L and H ≤ 20
structure (smiles),measurement,setting,value
"Cc1ccc(NC(=O)c2ccc(CN3CCN(C)CC3)cc2)cc1Nc1nc(-c2cccnc2)cs1 [MASITINIB, 4-(4-methylpiperazin-1-ylmethyl)-N-[4-methyl-3-(4-pyridin-3ylthiazol-2-ylamino)phenyl]benzamide]",Median progression-free survival (PFS),[1],5.5 months
same,Hazard Ratio,[1],0.99
same,Risk Benefit,[1],1%
same,Median progression-free survival (PFS),[2],5.5 months
same,Hazard Ratio,[2],1.00
same,Risk Benefit,[2],0%
same,Median progression-free survival (PFS),[3],5.5 months
same,Hazard Ratio,[3],1.00
same,Risk Benefit,[3],0%
same,Median progression-free survival (PFS),[4],5.5 months
same,Hazard Ratio,[4],1.00
same,Risk Benefit,[4],0%
same,Median progression-free survival (PFS),[5],5.4 months
same,Hazard Ratio,[5],1.00
same,Risk Benefit,[5],0%
same,Median progression-free survival (PFS),[6],4.9 months
same,Hazard Ratio,[6],1.04
same,Risk Benefit,[6],−4%
same,Median progression-free survival (PFS),[7],4.9 months
same,Hazard Ratio,[7],1.07
same,Risk Benefit,[7],−7%
same,Median progression-free survival (PFS),[8],4.9 months
same,Hazard Ratio,[8],1.09
same,Risk Benefit,[8],−9%
same,Median progression-free survival (PFS),[9],4.8 months
same,Hazard Ratio,[9],1.20
same,Risk Benefit,[9],−20%
same,Median progression-free survival (PFS),[10],4.1 months
same,Hazard Ratio,[10],1.34
same,Risk Benefit,[10],−34%
same,Median progression-free survival (PFS),[11],15 months
same,Hazard Ratio,[11],0.28
same,Risk Benefit,[11],72%
same,Median progression-free survival (PFS),[12],9.0 months
same,Hazard Ratio,[12],0.35
same,Risk Benefit,[12],65%
same,Median progression-free survival (PFS),[13],7.0 months
same,Hazard Ratio,[13],0.49
same,Risk Benefit,[13],51%
same,Median progression-free survival (PFS),[14],7.0 months
same,Hazard Ratio,[14],0.54
same,Risk Benefit,[14],46%
same,Median progression-free survival (PFS),[15],6.9 months
same,Hazard Ratio,[15],0.69
same,Risk Benefit,[15],31%
same,Median progression-free survival (PFS),[16],7.0 months
same,Hazard Ratio,[16],0.65
same,Risk Benefit,[16],36%
same,Median progression-free survival (PFS),[17],7.0 months
same,Hazard Ratio,[17],0.65
same,Risk Benefit,[17],35%
same,Median progression-free survival (PFS),[18],6.9 months
same,Hazard Ratio,[18],0.65
same,Risk Benefit,[18],35%
same,Median progression-free survival (PFS),[19],6.5 months
same,Hazard Ratio,[19],0.75
same,Risk Benefit,[19],25%
same,Median progression-free survival (PFS),[20],6.4 months
same,Hazard Ratio,[20],0.81
same,Risk Benefit,[20],19%
same,Median progression-free survival (PFS),baseline ALP > 100 IU/L,5.4 months
same,Hazard Ratio,baseline ALP > 100 IU/L,1.02
same,Median progression-free survival (PFS),baseline ALP > 150 IU/L,4.9 months
same,Hazard Ratio,baseline ALP > 150 IU/L,1.14
same,Median progression-free survival (PFS),baseline ALP > 200 IU/L,4.4 months
same,Hazard Ratio,baseline ALP > 200 IU/L,1.17
same,Median progression-free survival (PFS),[21],4.3 months
same,Hazard Ratio,[21],1.19
same,Median progression-free survival (PFS),[22],4.2 months
same,Hazard Ratio,[22],1.18
same,Median progression-free survival (PFS),[23],4.2 months
same,Hazard Ratio,[23],1.19
same,Median progression-free survival (PFS),[24],4.2 months
same,Hazard Ratio,[24],1.19
same,Median progression-free survival (PFS),[25],4.2 months
same,Hazard Ratio,[25],1.20
same,Median progression-free survival (PFS),baseline ALP > 250 IU/L and H ≤ 18,3.4 months
same,Median progression-free survival (PFS),baseline ALP > 250 IU/L and H ≤ 19,9.2 months
same,Median progression-free survival (PFS),[26],13 months
same,Hazard Ratio,[26],1.78
same,Median progression-free survival (PFS),[27],8.3 months
same,Hazard Ratio,[27],0.99
same,Median progression-free survival (PFS),[28],8.3 months
same,Hazard Ratio,[28],0.88
same,Median progression-free survival (PFS),baseline ALP > 250 IU/L,4.2 months
same,Hazard Ratio,baseline ALP > 250 IU/L,1.20
same,Hazard Ratio,[29],0.46
same,Risk Benefit,[29],56%
same,Hazard Ratio,[30],0.46
same,Risk Benefit,[30],55%
same,Hazard Ratio,[31],about 0.5
same,Risk Benefit,[31],about 50%
same,Median progression-free survival (PFS),baseline ALP ≤ 100 IU/L,9.0 months
same,Hazard Ratio,baseline ALP ≤ 100 IU/L,0.53
same,Risk Benefit,baseline ALP ≤ 100 IU/L,47%
same,Risk Benefit,"baseline ALP ≤ 100 IU/L, listed as masitinib",47%
same,Median progression-free survival (PFS),baseline ALP ≤ 150 IU/L,6.9 months
same,Hazard Ratio,baseline ALP ≤ 150 IU/L,0.63
same,Risk Benefit,baseline ALP ≤ 150 IU/L,37%
same,Median progression-free survival (PFS),baseline ALP ≤ 200 IU/L,6.9 months
same,Hazard Ratio,baseline ALP ≤ 200 IU/L,0.73
same,Risk Benefit,baseline ALP ≤ 200 IU/L,27%
same,Median progression-free survival (PFS),[32],7.0 months
same,Hazard Ratio,[32],0.62
same,Risk Benefit,[32],38%
same,Median progression-free survival (PFS),[33],6.9 months
same,Hazard Ratio,[33],0.63
same,Risk Benefit,[33],37%
same,Median progression-free survival (PFS),[34],6.2 months
same,Hazard Ratio,[34],0.87
same,Median progression-free survival (PFS),[35],6.1 months
same,Hazard Ratio,[35],0.86
same,Median progression-free survival (PFS),[36],5.8 months
same,Hazard Ratio,[36],0.90
same,Median progression-free survival (PFS),[37],5.8 months
same,Hazard Ratio,[37],0.94
same,Median progression-free survival (PFS),[38],5.8 months
same,Hazard Ratio,[38],0.97
same,Median progression-free survival (PFS),[39],7.7 months
same,Hazard Ratio,[39],0.52
same,Risk Benefit,[39],48%
same,Median progression-free survival (PFS),[40],6.9 months
same,Hazard Ratio,[40],0.66
same,Risk Benefit,[40],34%
same,Median progression-free survival (PFS),[41],7.0 months
same,Hazard Ratio,[41],0.62
same,Risk Benefit,[41],38%
same,Median progression-free survival (PFS),baseline ALP ≤ 250 IU/L,6.3 months
same,Hazard Ratio,baseline ALP ≤ 250 IU/L,0.79
same,Risk Benefit,baseline ALP ≤ 250 IU/L,21%

# Source: patent US12648944B2, “Masitinib for the treatment of castrate-resistant prostate cancer” (AB SCIENCE, priority 2021, dated 2026)
